According to patent publication US20090297576A1, “Local Delivery of PAR-1 Antagonists to Treat Vascular Complications” (MEDTRONIC VASCULAR, INC., priority 2008, published 2009):

Assay: solubility of SCH-530348 in the coating solvent ethanol
Type: physicochemical
Details: stent coating solution
Protocol: In the following Example, ethanol is chosen as the solvent of choice. The PAR-1 antagonist is SCH-530348. […] Persons having ordinary skill in the art of polymer chemistry can easily pair the appropriate solvent system to the polymer-drug combination and achieve optimum results with no more than routine experimentation.
250 mg of SCH-530348 is carefully weighed and added to a small neck glass bottle containing 2.8 ml of ethanol. The SCH-530348-ethanol suspension is then thoroughly mixed until a clear solution is achieved.

For `CCOC(=O)N[C@@H]1CC[C@@H]2[C@@H](C1)C[C@H]1C(=O)O[C@H](C)[C@H]1[C@H]2/C=C/c1ccc(-c2cccc(F)c2)cn1` [SCH-530348], the solubility in ethanol was “freely soluble”.
